Reference: ChEMBL document CHEMBL1122200, “Novel opiates and antagonists. 5. 7-Carbethoxy-N-(cycloalkylmethyl)-3-hydroxymorphinan-6-ones and -isomorphinan-6-ones” (1982)

Experiments:
Mus musculus = experiment: Analgesic activity by mouse writhing test after subcutaneous injection.; format: functional
Rattus norvegicus = experiment: Narcotic antagonist activity was measured by rat tail flick procedure after the drug was injected intraperitoneally; format: functional
[1] = Mus musculus, sc, read-out: ED50

SMILES: CCOC(=O)[C@H]1CC2C3Cc4ccc(OC)cc4C2(CCN3C)CC1=O (some centres not stated)
- ED50 (Mus musculus; [1]): > 10 mg/kg

SMILES: O=C1CCC2C3Cc4ccc(O)cc4C2(CCN3CC2CCC2)C1 (cis isomer)
- ED50 (Mus musculus; [1]): 0.017 mg/kg
- AD50 (Rattus norvegicus): >10 mg/kg

SMILES: CCOC(=O)[C@@H]1CC2C3Cc4ccc(OC)cc4C2(CCN3CC2CC2)CC1=O (some centres not stated)
- ED50 (Mus musculus; [1]): > 10 mg/kg
- AD50 (Rattus norvegicus): >3 mg/kg

SMILES: CN1CCC23CC(=O)CC[C@H]2C1Cc1ccc(O)cc13 (some centres not stated)
- ED50 (Mus musculus; [1]): 0.15 mg/kg

SMILES: C=CCN1CC[C@]23c4c5ccc(O)c4O[C@H]2[C@@H](O)C=C[C@H]3[C@H]1C5 [NALORPHINE]
- AD50 (Rattus norvegicus): 0.86 mg/kg

SMILES: CN1CC[C@]23c4c5ccc(O)c4O[C@H]2[C@@H](O)C=C[C@H]3[C@H]1C5.CN1CC[C@]23c4c5ccc(O)c4O[C@H]2[C@@H](O)C=C[C@H]3[C@H]1C5.O=S(=O)(O)O
- ED50 (Mus musculus; [1]): 0.8 mg/kg

SMILES: CCOC(=O)[C@@H]1CC2C3Cc4ccc(OC)cc4C2(CCN3C)CC1=O (some centres not stated)
- ED50 (Mus musculus; [1]): 4.6 mg/kg

SMILES: COc1ccc2c(c1)C13CCN(C)C(C2)[C@@H]1CCC(=O)C3 (some centres not stated)
- ED50 (Mus musculus; [1]): 0.49 mg/kg

SMILES: COc1ccc2c(c1)C13CCN(C)C(C2)[C@H]1CCC(=O)C3 (some centres not stated)
- ED50 (Mus musculus; [1]): 1.58 mg/kg

SMILES: CC(C)=CCN1CC[C@]2(C)c3cc(O)ccc3C[C@H]1[C@H]2C [(+)-PENTAZOCINE]
- ED50 (Mus musculus; [1]): 3.7 mg/kg
- AD50 (Rattus norvegicus): 10.4 mg/kg

SMILES: CN1CCC23CC(=O)CC[C@@H]2C1Cc1ccc(O)cc13 (some centres not stated)
- ED50 (Mus musculus; [1]): 0.23 mg/kg

SMILES: CCOC(=O)[C@@H]1CC2C3Cc4ccc(O)cc4C2(CCN3CC2CCC2)CC1=O (some centres not stated)
- AD50 (Rattus norvegicus): >10 mg/kg

SMILES: CCOC(=O)[C@H]1CC2C3Cc4ccc(O)cc4C2(CCN3C)CC1=O (some centres not stated)
- ED50 (Mus musculus; [1]): 0.6 mg/kg

SMILES: CCOC(=O)[C@H]1CC2C3Cc4ccc(OC)cc4C2(CCN3CC2CC2)CC1=O (some centres not stated)
- ED50 (Mus musculus; [1]): > 10 mg/kg
- AD50 (Rattus norvegicus): >10 mg/kg

SMILES: COc1ccc2c(c1)C13CCN(CC4CC4)C(C2)C1CCC(=O)C3 (stereo in doubt; 5Cc)
- ED50 (Mus musculus): 0.24 mg/kg
- AD50 (Rattus norvegicus): >3 mg/kg

SMILES: CC(C)(O)[C@H]1CC2C3Cc4ccc(O)cc4C2(CCN3CC2CC2)C[C@H]1O (some centres not stated)
- ED50 (Mus musculus; [1]): > 10 mg/kg
- AD50 (Rattus norvegicus): >10 mg/kg

SMILES: O=C1CCC2C3Cc4ccc(O)cc4C2(CCN3CC2CC2)C1 (trans isomer)
- ED50 (Mus musculus): >10 mg/kg
- AD50 (Rattus norvegicus): 0.78 mg/kg

SMILES: COc1ccc2c(c1)C13CCN(CC4CCC4)C(C2)C1CCC(=O)C3 (trans isomer)
- ED50 (Mus musculus): 6.9 mg/kg

SMILES: CCOC(=O)[C@@H]1CC2C3Cc4ccc(OC)cc4C2(CCN3CC2CCC2)CC1=O (some centres not stated)
- ED50 (Mus musculus; [1]): > 10 mg/kg
- AD50 (Rattus norvegicus): >3 mg/kg

SMILES: CCOC(=O)[C@@H]1CC2C3Cc4ccc(O)cc4C2(CCN3CC2CC2)CC1=O (some centres not stated)
- ED50 (Mus musculus; [1]): 4.9 mg/kg

SMILES: COc1ccc2c(c1)C13CCN(CC4CC4)C(C2)C1CCC(=O)C3 (trans isomer)
- ED50 (Mus musculus): >10 mg/kg
- AD50 (Rattus norvegicus): 1.3 mg/kg

SMILES: CC(C)(O)[C@@H]1CC2C3Cc4ccc(O)cc4C2(CCN3CC2CC2)C[C@@H]1O (some centres not stated)
- ED50 (Mus musculus; [1]): 6.9 mg/kg
- AD50 (Rattus norvegicus): >10 mg/kg

SMILES: CCOC(=O)[C@@H]1CC2C3Cc4ccc(O)cc4C2(CCN3C)CC1=O (some centres not stated)
- ED50 (Mus musculus; [1]): 0.72 mg/kg

SMILES: COc1ccc2c(c1)C13CCN(CC4CCC4)C(C2)C1CCC(=O)C3 (stereo in doubt; 5Cd)
- ED50 (Mus musculus): 0.22 mg/kg
- AD50 (Rattus norvegicus): >10 mg/kg

SMILES: O=C1CCC2C3Cc4ccc(O)cc4C2(CCN3CC2CC2)C1 (stereo in doubt; 9Ca)
- ED50 (Mus musculus): 1.02 mg/kg
- AD50 (Rattus norvegicus): 2.3 mg/kg
